Columns and labels:
h-GABA-A α5β3γ2 [1] = target: T1, h-GABA-A α5β3γ2 (Homo sapiens, UniProt P18507+P31644); test: [3H]flumazenil competition binding assay, membranes of HEK293 cells expressing GABAA receptors; conditions: displacement of [3H]-Flumazenil 0.5 nM, HEK293 cells expressing human receptors, mean of two determinations; Table 1
Protocol: The affinity of compounds at GABAA receptor subtypes was measured by competition for [3H]flumazenil (85 Ci/mmol; Roche) binding to HEK293 cells expressing rat (stably transfected) or human (transiently transfected) receptors of composition α1β3γ2, α2β3γ2, α3β3γ2 and α5β3γ2.
Cell pellets were suspended in Krebs-tris buffer (4.8 mM KCl, 1.2 mM CaCl2), 1.2 mM MgCl2, 120 mM NaCl, 15 mM Tris; pH 7.5; binding assay buffer), homogenized by polytron for ca. 20 sec on ice and centrifuged for 60 min at 4° C. (50000 g; Sorvall, rotor: SM24=20000 rpm). The cell pellets were resuspended in Krebs-tris buffer and homogenized by polytron for ca. 15 sec on ice. Protein was measured (Bradford method, Bio-Rad) and aliquots of 1 mL were prepared and stored at −80° C.
Assays were incubated to equilibrium for 1 hour at 4° C. and harvested onto GF/C uni-filters (Packard) by filtration using a Packard harvester and washing with ice-cold wash buffer (50 mM Tris; pH 7.5). After drying, filter-retained radioactivity was detected by liquid scintillation counting. Ki values were calculated using Excel-Fit (Microsoft) and are the means of two determinations.

h-GABA-A α5β3γ2 [2] = target: T1, h-GABA-A α5β3γ2; test: Two-electrode voltage clamp electrophysiology in Xenopus laevis oocytes expressing GABAA receptors, modulation of GABA EC20 current; type: cell-based; parameters: host or cells: Xenopus laevis oocytes micro-injected with RNA transcripts of the subunits
Protocol: Xenopus laevis oocytes at maturation stages V-VI were used for the expression of cloned mRNA encoding GABAA receptor subunits. Oocytes ready for RNA micro-injection were bought from Ecocyte, Castrop-Rauxel, Germany and stored in modified Barth's medium (composition in mM: NaCl 88, KCl 1, NaHCO32.4, HEPES 10, MgSO4 0.82, CaNO3 0.33, CaCl2 0.33, pH=7.5) at 20° C. until the experiment.
Oocytes were plated in 96-well plates to be used in an automated instrument (Robo-ocyte, MultiChannelSystems, Reutlingen, Germany) for microinjection and electrophysiological recordings. Approximately 50 nl of an aqueous solution containing the RNA transcripts for the subunits of the desired GABAA receptor was injected into each oocyte. RNA concentrations ranged between 0.3 and 16 ng/μl/subunit and were adjusted in pilot experiments to obtain GABA responses of a suitable size and a maximal effect of the reference modulator, Beta-CCM (β-CCM), a betacarboline negative allosteric modulator (NAM) at the GABAA receptor benzodiazepine (BZD) binding site or Midazolam, a benzodiazepine positive allosteric modulator (PAM) at the GABAA receptor benzodiazepine (BZD) binding site. The concentration of the γ2 subunit encoding RNA usually was 5- to 10-fold higher than the RNAs encoding the other subunits. Oocytes were kept in modified Barth's medium (composition in mM: NaCl 88, KCl 1, NaHCO3 4, HEPES 10, MgSO4 0.82, CaNO3 0.33, CaCl2) 0.33, pH=7.5) at 20° C. until the experiment.
Electrophysiological experiments were performed on days 3 to 5 after the micro-injection of mRNA. During the experiment the oocytes were constantly superfused by a solution containing (in mM) NaCl 90, KCl 1, HEPES 5, MgCl2 1, CaCl2) 1 (pH 7.4). Oocytes were impaled by two glass microelectrodes (resistance: 0.4 MΩ) which were filled with a solution containing KCl 1M+K-acetate 1.5 M and voltage-clamped to −80 mV. The recordings were performed at room temperature using the Roboocyte two-electrode voltage clamp system (Multichannelsystem). After an initial equilibration period of 1.5 min GABA was added for 1.5 min at a concentration evoking approximately 20% of a maximal current response (EC20). After another rest interval of 2.5 min GABA was again added evoking a response of similar amplitude and shape. 0.5 min after the onset of this second GABA application the test compound, at a concentration corresponding to approximatively 30 fold its Ki, was added while GABA was still present. Current traces were recorded at a digitization rate of 10 Hz during and shortly before and after the GABA application.
Each compound and concentration was tested on at least 3 oocytes. Different oocytes were used for different compound concentrations. β-CCM, a negative allosteric modulator, or Midazolam, a positive allosteric modulators, were tested on a few (3-6) oocytes on each 96-well plate for a positive control at a maximally effective. β-CCM inhibited the GABA-evoked current by approximatively 50% (Fold increase ˜0.5), while Midazolam potentiated the GABA-induced current by approximatively 150% (Fold increase ˜2.5).
For the analysis, the digitized current traces of the first and second GABA response were superimposed and, if necessary, rescaled to equal maximal amplitudes. The ratio between the two responses during the time interval of test compound application was calculated point by point. The extremum of the resulting “ratio trace” was taken as the efficacy (“Fold increase”) of the compound expressed as “% modulation of GABA EC20” (100*(Fold increase-1)).

[3] = % modulation of GABA EC20 = 100*(Fold increase-1), Table 1
[4] = test compound at approx. 30 fold its Ki, GABA at EC20, Table 1
[5] = positive control at a maximally effective concentration, 3-6 oocytes per plate

Row | Compound | Ki (h-GABA-A α5β3γ2 [1]) [nM] | Efficacy (GABA) % (h-GABA-A α5β3γ2 [2]; [3]) [%] | Fold increase h-GABA-A α5β3γ2 oocyte (h-GABA-A α5β3γ2 [2]; [4]) | Fold increase (h-GABA-A α5β3γ2 [2]; [5]) | inhibition of the GABA-evoked current (h-GABA-A α5β3γ2 [2]; [5]) [%] | potentiation of the GABA-induced current (h-GABA-A α5β3γ2 [2]; [5]) [%] | Efficacy (GABA) % (h-GABA-A α5β3γ2 [2]; reference compounds, % modulation of GABA EC20, Table 2) [%] | Fold increase h-GABA-A α5β3γ2 oocyte (h-GABA-A α5β3γ2 [2]; reference compounds, Table 2)
1 | Cc1ncccc1N1CCN(c2cnn(Cc3c(-c4ccc(Cl)nc4)noc3C)c(=O)c2)CC1 [Example 285, 2-((3-(6-chloropyridin-3-yl)-5-methylisoxazol-4-yl)methyl)-5-(4-(2-methylpyridin-3-yl)piperazin-1-yl)pyridazin-3(2H)-one] | 2.6 | 84 | 1.84 | – | – | – | – | –
2 | Cc1ccc(-c2noc(C)c2Cn2ncc(-c3cnn(C)c3)cc2=O)cn1 [Example 103, 2-((5-methyl-3-(6-methyl-3-pyridyl)isoxazol-4-yl)methyl)-5-(1-methylpyrazol-4-yl)pyridazin-3-one] | 29.7 | 141 | 2.41 | – | – | – | – | –
3 | Cc1ncc(-c2noc(C)c2Cn2ncc(N3CC4(CCCO4)C3)cc2=O)cc1F [Example 208, 2-((3-(5-fluoro-6-methylpyridin-3-yl)-5-methylisoxazol-4-yl)methyl)-5-(5-oxa-2-azaspiro[3.4]octan-2-yl)pyridazin-3(2H)-one] | 61.2 | 110 | 2.1 | – | – | – | – | –
4 | Cc1ccc(-c2noc(C)c2Cn2ncc(N3CC4(C3)CC(F)(F)CO4)cc2=O)cn1 [Example 193, 5-(7,7-difluoro-5-oxa-2-azaspiro[3.4]octan-2-yl)-2-[[5-methyl-3-(6-methyl-3-pyridyl)isoxazol-4-yl]methyl]pyridazin-3-one] | 7.2 | 95 | 1.95 | – | – | – | – | –
5 | COC1CN(c2cnn(Cc3c(-c4ccc(Cl)nn4)noc3C)c(=O)c2)C1 [Example 252, 2-((3-(6-chloropyridazin-3-yl)-5-methylisoxazol-4-yl)methyl)-5-(3-methoxyazetidin-1-yl)pyridazin-3(2H)-one] | 4.2 | 86 | 1.86 | – | – | – | – | –
6 | Cc1onc(-c2ccc(F)cc2)c1Cn1ncc(N2C[C@@H](C)O[C@@H](C)C2)cc1=O [Example 12, 5-(cis-2,6-Dimethylmorpholino)-2-((3-(4-fluorophenyl)-5-methylisoxazol-4-yl)methyl)pyridazin-3(2H)-one] | 3.8 | 114 | 2.14 | – | – | – | – | –
7 | COC1(C)CCN(c2cnn(Cc3c(-c4ccc(Cl)nc4)noc3C)c(=O)c2)CC1 [Example 262, 2-((3-(6-chloropyridin-3-yl)-5-methylisoxazol-4-yl)methyl)-5-(4-methoxy-4-methylpiperidin-1-yl)pyridazin-3(2H)-one] | 35.5 | 216 | 3.16 | – | – | – | – | –
8 | Cc1ccc(-c2noc(C)c2Cn2ncc(N3CC(OCC4CC4)C3)cc2=O)cn1 [Example 111, 5-[3-(cyclopropylmethoxy)azetidin-1-yl]-2-[[5-methyl-3-(6-methyl-3-pyridyl)isoxazol-4-yl]methyl]pyridazin-3-one] | 34.6 | 147 | 2.47 | – | – | – | – | –
9 | Cc1ccc(-c2noc(C)c2Cn2ncc(N3CC(C#N)C3)cc2=O)cn1 [Example 85, 1-[1-[[5-methyl-3-(6-methyl-3-pyridyl)isoxazol-4-yl]methyl]-6-oxo-pyridazin-4-yl]azetidine-3-carbonitrile] | 18.1 | 134 | 2.34 | – | – | – | – | –
10 | Cc1onc(-c2ccc(Cl)nc2)c1Cn1ncc(N2CCC3(CCOCC3)CC2)cc1=O [Example 248, 2-((3-(6-chloropyridin-3-yl)-5-methylisoxazol-4-yl)methyl)-5-(3-oxa-9-azaspiro[5.5]undecan-9-yl)pyridazin-3(2H)-one] | 24.6 | 107 | 2.07 | – | – | – | – | –
11 | Cc1ccc(-c2noc(C)c2Cn2ncc(N3CCN(C(=O)C4(C)CC4)CC3)cc2=O)cn1 [Example 10, 2-((5-methyl-3-(6-methylpyridin-3-yl)isoxazol-4-yl)methyl)-5-(4-(1-methylcyclopropanecarbonyl)piperazin-1-yl)pyridazin-3(2H)-one] | 21.9 | 222 | 3.22 | – | – | – | – | –
12 | Cc1cc(-c2noc(C)c2Cn2ncc(N3CC4(C3)CN(C3CC3)C4)cc2=O)no1 [Example 87, 5-(2-cyclopropyl-2,6-diazaspiro[3.3]heptan-6-yl)-2-[[5-methyl-3-(5-methylisoxazol-3-yl)isoxazol-4-yl]methyl]pyridazin-3-one] | 39 | 105 | 2.05 | – | – | – | – | –
13 | Cc1ccc(-c2noc(C)c2Cn2ncc(N3CCC3)cc2=O)cn1 [Example 97, 5-(azetidin-1-yl)-2-[[5-methyl-3-(6-methyl-3-pyridyl)isoxazol-4-yl]methyl]pyridazin-3-one] | 8.6 | 106 | 2.06 | – | – | – | – | –
14 | Cc1ccc(-c2noc(C)c2Cn2ncc(N3CC4(CCC(C)CO4)C3)cc2=O)nn1 (single isomer, unassigned) [Example 313] | 7.9 | 103 | 2.03 | – | – | – | – | –
15 | Cc1onc(-c2ccc(Cl)nn2)c1Cn1ncc(N2CC3(C2)CC(F)(F)CO3)cc1=O [Example 269, 2-((3-(6-chloropyridazin-3-yl)-5-methylisoxazol-4-yl)methyl)-5-(7,7-difluoro-5-oxa-2-azaspiro[3.4]octan-2-yl)pyridazin-3(2H)-one] | 1.4 | 70 | 1.7 | – | – | – | – | –
16 | COC(=O)c1cc2c(cn1)[nH]c1ccccc12 [β-CCM, reference compound] | – | – | – | ~0.5 | ~50 | – | – | –
17 | Cc1ncc2n1-c1ccc(Cl)cc1C(c1ccccc1F)=NC2 [Midazolam, reference compound] | – | – | – | ~2.5 | – | ~150 | – | –
18 | Cc1onc(-c2ccc(Cl)cn2)c1COc1ccc(C(=O)N2CCOCC2)cn1 [RO-309, reference compound] | – | – | – | – | – | – | −17 | 0.83

From patent publication US11840528B2 (Hoffmann-La Roche Inc., priority 2018, dated 2023)
